Assay results reported in patent US12123048B2, “Fluorinated 4′-alkylumbelliferyl a-D-glucopyranosides, biological sterilization indicators including the same and methods of using the same” (3M INNOVATIVE PROPERTIES COMPANY, priority 2018, dated 2024).

Test: Measurement of enzyme substrate degradation (100° C. for 15 minutes) by fluorescence
Type: physicochemical
Details: no spores, read at 60° C.
Method: Luria-Bertani (LB) broth was prepared by dissolving tryptone (10 g/L), yeast extract (5 g/L), and NaCl (5 g/L) in deionized water. In the examples, 6′-fluoro-4′-methylumbelliferyl α-D-glucopyranoside (0.3 mg/mL) or 5′-fluoro-4′-methylumbelliferyl α-D-glucopyranoside (0.3 mg/mL) was added to the broth. In the comparative examples, 4′-methylumbelliferyl α-D-glucopyranoside (MUG) (0.3 mg/mL) or 6′,8′-Difluoro-4′-methylumbelliferyl α-D-glucopyranoside (0.3 mg/mL) was added to the broth. The pH of the broth was adjusted to either pH 6, pH 7, pH 8, or pH 9 using 0.1 N hydrochloric acid or 1N sodium hydroxide solutions. The broth was passed through a 0.22 micron filter prior to use.
(§1) An 800-microliter sample of LB broth (pH 6) containing 6′-fluoro-4′-methylumbelliferyl α-D-glucopyranoside (0.3 mg/mL) (enzyme substrate of Example 1) was added to a 1.5 mL microcentrifuge tube and the capped tube was placed in a heating block at 100° C. for 15 minutes. A metal block was placed on top of the tube to keep the cap sealed during heating. The sample was cooled to ambient temperature and then added to two wells (100 microliters per well) of a black 96-well microtiter plate with optically clear, flat bottom wells (NUNC #165301, Thermo Fisher Scientific). The top of the plate was covered with an optically clear sealing film (product #4311971, Applied Biosystems Corporation). The plate was warmed at 60° C. and shaken in a linear direction. Fluorescence readings (360 nm excitation/450 nm emission at 50% gain) were taken from the bottom of the plate. A reading was taken at an initial time point of 10 seconds and then at +1 minute intervals thereafter. A Synergy Neo2 fluorescence plate reader (BioTek Company) was used. In Table 5, the mean fluorescence values detected (RFU) at times of 10 seconds, +5 minutes, +10 minutes, and +30 minutes are reported.
as §1, with “7)” for “6)”, “6,” for “5,”
as §1, with “8)” for “6)”, “A Synergy Neo2 fluorescence plate reader (BioTek Company) was used. In Table 5, the mean fluorescence values detected (RFU) at times of 10 seconds, +5 minutes, +10 minutes, and +30 minutes are reported.” left out

Row | MEASURED FLUORESCENCE, RFU 10 sec (pH 6 LB broth) | MEASURED FLUORESCENCE, RFU +5 min (pH 6 LB broth) | MEASURED FLUORESCENCE, RFU +10 min (pH 6 LB broth) | MEASURED FLUORESCENCE, RFU +30 min (pH 6 LB broth) | MEASURED FLUORESCENCE, RFU 10 sec (pH 7 LB broth) | MEASURED FLUORESCENCE, RFU +5 min (pH 7 LB broth) | MEASURED FLUORESCENCE, RFU +10 min (pH 7 LB broth) | MEASURED FLUORESCENCE, RFU +30 min (pH 7 LB broth) | MEASURED FLUORESCENCE, RFU 10 sec (pH 8 LB broth) | MEASURED FLUORESCENCE, RFU +5 min (pH 8 LB broth) | MEASURED FLUORESCENCE, RFU +10 min (pH 8 LB broth) | MEASURED FLUORESCENCE, RFU +30 min (pH 8 LB broth) | MEASURED FLUORESCENCE, RFU 10 sec (pH 9 LB broth) | MEASURED FLUORESCENCE, RFU +5 min (pH 9 LB broth) | MEASURED FLUORESCENCE, RFU +10 min (pH 9 LB broth) | MEASURED FLUORESCENCE, RFU +30 min (pH 9 LB broth) | SMILES
1 | 10,605 RFU | 10,851 RFU | 10,748 RFU | 10,663 RFU | 12986 RFU | 13409 RFU | 13403 RFU | 13283 RFU | 14015 RFU | 14483 RFU | 14494 RFU | 14331 RFU | 18584 RFU | 19052 RFU | 18990 RFU | 18683 RFU | Cc1cc(=O)oc2c(F)c(O[C@H]3O[C@H](CO)[C@@H](O)[C@H](O)[C@H]3O)c(F)cc12 [Comparative Example A, 6′,8′-Difluoro-4′-methylumbelliferyl α-D-glucopyranoside]
2 | 1108 RFU | 1096 RFU | 1040 RFU | 948 RFU | 1209 RFU | 1183 RFU | 1130 RFU | 1037 RFU | 1145 RFU | 1130 RFU | 1092 RFU | 1026 RFU | 1449 RFU | 1437 RFU | 1388 RFU | 1330 RFU | Cc1cc(=O)oc2cc(O[C@H]3O[C@H](CO)[C@@H](O)[C@H](O)[C@H]3O)c(F)cc12 [Example 1, 6′-Fluoro-4′-methylumbelliferyl α-D-glucopyranoside]
3 | 933 RFU | 852 RFU | 805 RFU | 758 RFU | 831 RFU | 777 RFU | 733 RFU | 673 RFU | 748 RFU | 705 RFU | 658 RFU | 579 RFU | 675 RFU | 625 RFU | 584 RFU | 530 RFU | Cc1cc(=O)oc2cc(O[C@H]3O[C@H](CO)[C@@H](O)[C@H](O)[C@H]3O)cc(F)c12 [Example 2, 5′-Fluoro-4′-methylumbelliferyl α-D-glucopyranoside]
4 | 967 RFU | 909 RFU | 852 RFU | 782 RFU | 823 RFU | 790 RFU | 745 RFU | 670 RFU | 714 RFU | 685 RFU | 643 RFU | 567 RFU | 654 RFU | 622 RFU | 575 RFU | 500 RFU | Cc1cc(=O)oc2cc(O[C@H]3O[C@H](CO)[C@@H](O)[C@H](O)[C@H]3O)ccc12 [MUG, 4′-methylumbelliferyl-α-D-glucopyranoside]
